Laboratory results from patent publication US9914698B2, “Stearoyl amino acid salt and preparation method and application thereof” (Shanghai Jiaotong University School of Medicine, priority 2014, dated 2018).
Where two headings read alike, the source gives them in different places.

Assays:
[1] = Equilibrium solubility, shake-flask method; assay type: physicochemical; settings: 37 °C, thermodynamic from solid, read-out: Equilibrium solubility in buffer solution
Description: (§1) The shake-flask method was used to test the equilibrium solubility of NsTyr, NsTyr-2K, NsTyr-2Na in water at 37° C. […] The apparent lipid-water distribution coefficient log p of NsTyr-2K, NsTyr-2Na was respectively 1.512 and 1.477. Under different pHs, see Table 1 for the equilibrium solubility test data of NsTyr-2K, NsTyr-2Na; and see Table 2 for the apparent lipid-water distribution coefficient of NsTyr-2K and NsTyr-2Na.

[2] = Apparent lipid-water distribution coefficient; assay type: physicochemical
Description: as §1

[3] = Stability assessment (influencing factors, acceleration and long-term tests, Chinese Pharmacopoeia 2010); assay type: physicochemical; settings: high temperature, high humidity, strong light
Description: Considering that prototype drug stearoyl amino acid tend to absorb moisture, cake and become yellowish during long-term storage, the stearoyl amino acid is now converted into a form of active salt thereof. And the stability of NsTyr-2K and NsTyr-2Na was tested as required for bulk pharmaceutical chemicals according to the People's Republic of China Pharmacopoeia 2010.

[4] = Absorption kinetics after intragastric administration; assay type: in vivo; settings: SD rats, oral 200 mg/kg
Description: Ten SD rats weighing 150-180 g were randomly divided into two groups, each comprising five, with males and females combined. After intragastric administration of 200 mg/kg of saline solution containing NsTyr and NsTyr-2K, the average blood concentration-time curve thereof was respectively shown in FIG. 2.

[5] = test system: gerbil model with global ischemia reperfusion injury; assay: Dark avoidance test; assay type: in vivo; settings: compared with the ischemia group; NsTyr-2K 15, 30, 60 mg/kg; nimotop positive control
From the text: (§2) Taking N-stearoyl amino acid potassium NsTyr-2K as an example, a gerbil model with global ischemia reperfusion injury was used to assess the protective role of NsTyr-2K against neurobehavioral disorder caused by cerebral ischemia-reperfusion injury by examining the changing behavioral indexes such as spatial, learning and cognitive functions in the perspective of overall animals during passive dark avoidance test and Morris water maze test.
Dark avoidance test was used to evaluate the effects of NsTyr-2K influence on animal learning and memory abilities.

[6] = test system: gerbil model with global ischemia reperfusion injury; assay: Morris water maze test (cerebral ischemia); assay type: in vivo
From the text: as §2
Up to day 4, for normal animals their latency fell to 29.8+/−12.55 s, and their swimming distance to 3,216.5+/−1,026.46 cm. From day 1 to day 2, there was no evident difference in the average latency before reaching the platform and the swimming distance prior to going onto the platform between the ischemia group of gerbils and any of the other groups. As training sessions increased, the latency and swimming distance of each group of gerbils before reaching the platform was shortened. The gap between the ischemia group and any of the other groups began to widen and reached the record on day 4.

Acute toxicity test = settings: mouse, in vivo; oral, Kunming mice
From the text: (§3) After oral administration of NsTyr-2K, the mice were weighed. […] However, their weight followed up rapidly as food intake recovered.
(§4) After 15-day administration of NsTyr-2K, the mouse organs (brain, heart, lung, liver and kidney) were studied to see if there was any change.
(§5) This means that mouse brain tissues had not been severely damaged under such dose, and that NsTyr-2K had high safety. Even so, it is necessary to conduct further long-term safety assessment of any possible side effect of NsTyr-2K on liver and hear in the following medicinal research and to precisely determine the amount of administration required.

Kunming mice = assay: Acute toxicity test; settings: mouse, in vivo
From the text: as §3, §4, §5

obese mouse model [7] = assay: Administration test in obese mouse model (weight, food intake); assay type: in vivo, C57BL/6 mice; settings: for obese mouse weight: four weeks
Description: 2. Method: 60 C57BL/6 mice (aged 3 weeks, male, with a weight of 8.3 g each) were adaptively fed with 12% kcal normal diet for one week, and randomly divided into 6 groups, each consisting of 10 mice. One group (ND) continued to be fed with normal diet, the rest five groups (HFD I˜V) were fed with 45% kcal high-fat diet.
In the whole test process the mice kept raised in the following environment: temperature: 23±3° C.; humidity: 50±5%; bright and dim alternating cycle: 12 h/12 h; freely available to diet and drinking water in the whole process.
2. Method: ND and HFD I were respectively taken as normal and high-fat diet blank control groups, and were treated with 0.5% sodium carboxymethyl cellulose solution (5 ml/kg/day); HFD II˜IV were taken as groups of recipients, and were treated with NST-2K (20, 60, 100 mg/kg/day); HFD V was taken as a positive control group, and treated with Orlistat (100 mg/kg/day). All the above drugs dissolved in aqueous solution of 0.5% sodium carboxymethyl cellulose and were administered. The administration remained four weeks. In each week average weight and food intake were kept in record until the phase of administration ended.

obese mouse model [8] = assay: H&E staining of fat and liver tissue of obese mice; assay type: in vivo, C57BL/6 mice
Description: 2. Method: Epididymal fat and liver were fixed in 10% neutral formaldehyde solution for 48 h. After paraffin embedding they were made into […] of slices, and stained with hematoxylin-eosin (H&E staining). Light microscope was used to observe the size of fat cells, the structure of liver cells and adipose accumulation.

[9] = both sexes, Sprague-Dawley (SD), rat, blood

Work on `CCCCCCCCCCCCCCCCCC(=O)N[C@@H](Cc1ccc(O)cc1)C(=O)[O-].[K+]` [NsTyr-2K, N-stearoyl tyrosine potassium salt] yielded a solubility thermodynamic ([1]; aqueous buffer, pH 2.0) of 49.3 µg/mL, a solubility thermodynamic ([1]; aqueous buffer, pH 3.0) of 58.5 µg/mL and a solubility thermodynamic ([1]; aqueous buffer, pH 4.0) of 188 µg/mL. The solubility thermodynamic ([1]; aqueous buffer, pH 5.0) was 221 µg/mL, the solubility thermodynamic ([1]; aqueous buffer, pH 6.0) was 243 µg/mL and the solubility thermodynamic ([1]; aqueous buffer, pH 7.0) was 251 µg/mL. It also gave a solubility thermodynamic ([1]; aqueous buffer, pH 8.0) of 286 µg/mL, a solubility thermodynamic ([1]; aqueous buffer, pH 9.0) of 370 µg/mL and a solubility thermodynamic ([1]; pH 7.4, aqueous buffer) of 270 µg/mL. The logP [2] was 1.51, the “Apparent lipid-water distribution coefficient Ko/w” value ([2]; buffer pH 2.0) was 76.020 and the logP ([2]; buffer pH 2.0, read-out: Apparent lipid-water distribution coefficient LogP) was 1.88. The “Apparent lipid-water distribution coefficient Ko/w” value ([2]; buffer pH 3.0) was 30.571, the logP ([2]; buffer pH 3.0, read-out: Apparent lipid-water distribution coefficient LogP) was 1.49 and the “Apparent lipid-water distribution coefficient Ko/w” value ([2]; buffer pH 4.0) was 16.020. The logP ([2]; buffer pH 4.0, read-out: Apparent lipid-water distribution coefficient LogP) was 1.21, the “Apparent lipid-water distribution coefficient Ko/w” value ([2]; buffer pH 5.0) was 21.934 and the logP ([2]; buffer pH 5.0, read-out: Apparent lipid-water distribution coefficient LogP) was 1.34. For the same compound, the “Apparent lipid-water distribution coefficient Ko/w” value ([2]; buffer pH 6.0) was 28.935, the logP ([2]; buffer pH 6.0, read-out: Apparent lipid-water distribution coefficient LogP) was 1.46 and the “Apparent lipid-water distribution coefficient Ko/w” value ([2]; buffer pH 7.0) was 37.855. For the same compound, the logP ([2]; buffer pH 7.0, read-out: Apparent lipid-water distribution coefficient LogP) was 1.58, the “Apparent lipid-water distribution coefficient Ko/w” value ([2]; buffer pH 7.4) was 16.674 and the logP ([2]; buffer pH 7.4, read-out: Apparent lipid-water distribution coefficient LogP) was 1.22. The “Apparent lipid-water distribution coefficient Ko/w” value ([2]; buffer pH 8.0) was 13.797, the logP ([2]; buffer pH 8.0, read-out: Apparent lipid-water distribution coefficient LogP) was 1.14 and the “Apparent lipid-water distribution coefficient Ko/w” value ([2]; buffer pH 9.0) was 13.140. For the same compound, the logP ([2]; buffer pH 9.0, read-out: Apparent lipid-water distribution coefficient LogP) was 1.12, the stability [3] was “stable properties” and the “AUC multiplied, compared with NsTyr” value [4] was 30 times. For the same compound, the “half-life period compared with NsTyr” value [4] was “nearly doubled”, the “peak concentration Cmax multiplied, compared with NsTyr” value [4] was roughly 20 times and the AUC(0-inf) [4, 9] was 3690 ng·h/mL. The AUC(0-t) [4, 9] was 3490 ng·h/mL, the Cmax [4, 9] was 2400 ng/mL and the MRT last [4, 9] was 2.19 h. For the same compound, the Tmax [4, 9] was 0.6 h, the half-life [4, 9] was 2.9 h and the “error counts within 5 min” value [5] was “much fewer error counts within 5 min”. For the same compound, the latency [5] was “much prolonged latency”, the “period before finding the underwater platform and swimming distance” value ([6]; 15 mg/kg, compared with the model group) was “no obvious difference” and the “time percentage and swimming distance percentage in the first quadrant (probe test)” value ([6]; day 5, platform removed, against ischemia group, NsTyr-2K 30 and 60 mg/kg, nimotop control) was “statistical difference”. For the same compound, the “period before finding the underwater platform and swimming distance” value ([6]; days 3 and 4, compared with the ischemia group, NsTyr-2K 30 and 60 mg/kg, nimotop positive control) was “a shortened period before finding the underwater platform and a shortened swimming distance”, the LD50 at 15 days (Acute toxicity test) was greater than 2000 mg/kg and the behavioral abnormality (Kunming mice) was “no evidence of behavioral abnormality except loss of appetite and weight”. For the same compound, the organ coefficient (Kunming mice) was “exerted certain influence upon mouse brain, heart and liver coefficients”, the obese mouse weight (obese mouse model [7]; 100 mg/kg/day) was “can reduce obese mouse weight” and the “appetite (average daily food intake)” value (obese mouse model [7]; 4-week administration, high-fat diet groups) was “neither NST-2K nor Orlistat suppressed appetite”. The obese mouse weight (obese mouse model [7]; 20, 60 mg/kg/day) was “can inhibit weight gain in obese mice”, the “size of epididymal fat cells” value (obese mouse model [8]; HFD III, HFD IV (NST-2K 60, 100 mg/kg/day) and HFD V (Orlistat 100 mg/kg/day) vs HFD I) was “evidently smaller fat cells than HFD I” and the “fat accumulation in liver tissues” value (obese mouse model [8]; as the administration dose increased, vs HFD I) was “the accumulation began to ease”. For the same compound, the “size of epididymal fat cells” value (obese mouse model [8]; low-dose (20 mg/kg/day)) was “could not significantly shrink fat cells”.
